Values after ≈ are worked out from the molar mass of the structure shown.

What all share (assay type): functional
In assay [1] the test system is Mycobacterium tuberculosis. The assay can be described thus: Antibacterial activity against Mycobacterium tuberculosis H37Rv infected in C57BL/6 mouse assessed as […] in lung at 50 mg/kg, iv administered 2 times per week measured post last dose.
For assay [2], the system named is Mycobacterium tuberculosis. Put plainly: Antibacterial activity against Mycobacterium tuberculosis H37Rv infected in C57BL/6 mouse assessed as […] in lung at 50 mg/kg, ip administered 5 times per week measured post last dose. The settings on record: route intraperitoneal.
The test system of assay [3] is Mycobacterium tuberculosis. The assay can be described thus: Antibacterial activity against Mycobacterium tuberculosis H37Rv infected in C57BL/6 mouse assessed as […] in lung at 25 mg/kg, iv administered 2 times per week measured post last dose.
For assay [4], the system named is Mycobacterium tuberculosis. Put plainly: Antibacterial activity against Mycobacterium tuberculosis H37Rv infected in C57BL/6 mouse assessed as […] in lung at 100 mg/kg, ip administered 5 times per week measured post last dose. The settings on record: route intraperitoneal.
For assay [5], the system named is Mycobacterium avium. Put plainly: Antimycobacterial activity against Mycobacterium avium.
Assay [6] has as its system Mycobacterium tuberculosis. The assay can be described thus: Antibacterial activity against Mycobacterium tuberculosis H37Rv infected in C57BL/6 mouse assessed as […] in lung at 5 mg/kg administered for 1 week via oral gavage measured post last dose.
In assay [7] the test system is Mycobacterium tuberculosis. The assay can be described thus: Antimycobacterial activity against Mycobacterium tuberculosis.

With `CCCCCCCCCC(=O)O[C@@H]1[C@H](OC)[C@@H]([C@@H](CC(N)=O)O[C@H]2OC(C(=O)N[C@H]3CCC[C@@H](C)NC3=O)=C[C@@H](O)[C@H]2O)O[C@H]1n1ccc(=O)[nH]c1=O`, the log10cfu in assay [1] amounted to 6.01; in assay [2], 6.7; in assay [3] it was 6.1; in assay [4] it was 6.15; in assay [6] it was 5.1. Moreover, the MIC in assay [5] is 0.016 µg/mL (≈ 0.0213 µM); in assay [7] it was 1 µg/mL (≈ 1.33 µM).
